# According to patent US20060264367A1, “Prevention of fibrosis following cardiac injury” (Howard Florey Institute, priority 2005, published 2006):
# Experiments:
# Type in all cases: cell-based, rat
# [1] = test system: atrial and ventricular fibroblasts; test: Cardiac fibroblast proliferation (cell counts and [3H]-thymidine incorporation); conditions: for increase in fibroblast proliferation: 3 days; for increase in atrial and ventricular fibroblast proliferation: 72 h
# Experimental: The ability of rhRLX to modulate cardiac fibroblast proliferation was investigated in the absence or presence of Ang II and IGF-I, which both potently stimulate fibroblast proliferation. Cardiac fibroblasts were plated at an equal density of 10^4 cells/96-well plate in DMEM-FBS. Twenty-four hours later, media were changed to DMEM supplemented with lactalbumin hydrolysate, and cells were labelled with [^3H]-thymidine (3 μCi/ml) in the presence of rhRLX (100 ng/ml) alone or in combination with IGF-I (0.1 μg/ml, 0.5 μg/ml, and 1 μg/ml) or Ang II (10^−8 M and 10^−7 M) for 72 hours. [^3H]-thymidine incorporation and cell counts, using a hemocytometer, were evaluated.
# [2] = test system: atrial and ventricular fibroblasts; test: Collagen secretion into media by cardiac fibroblasts ([3H]-proline labelling); conditions: 72 h
# Experimental: (§1) Distribution of relaxin and LGR7 expression was determined in atrial myocytes and fibroblasts, ventricular myocytes and fibroblasts, and vascular smooth muscle cells (VSMC). These cells were obtained from neonate rats using standard collagenase digestion methods. Neonate (1 day old) Sprague Dawley rats were used for tissue collection and subsequent cardiac cell isolation and preparation. The cells were maintained in DMEM supplemented with 10% fetal calf serum, penicillin (50 U/ml), and streptomycin (50 μg/ml) (DMEM-FBS). Cardiac fibroblast isolation from myocytes and subsequent preparation were performed as described previously (Gray M O et al. (1998) Cardiovasc Res 40:352-363). These preparations contained more than 95% cardiac fibroblasts as determined by morphological appearance and immunocytochemical staining. Fibroblasts were used between passages 2 and 4 for all studies.
# Atrial and ventricular fibroblasts were subjected to TGF-β or Ang II in the absence or presence of rhRLX over 3 days. For the TGF-β studies, cells were treated for 72 hours with rhRLX (100 ng/ml), TGF-β (1 or 2 ng/ml), or a combination of rhRLX (100 ng/ml) and TGF-β (2 ng/ml) in serum-free DMEM supplemented with lactalbumin hydrolysate. For the Ang II studies, fibroblasts were treated with Ang II (1×10^−7 M and 5×10^−7 M) or a combination of rhRLX (100 ng/ml) and Ang II (1 or 5×10^−7 M). TGF-B3 (1 ng/ml) alone induced an 85-95% increase in secretion of interstitial (types I and III) collagen into the cultured media.
# For measurement of collagen synthesis, collagen was biosynthetically labelled with [^3H]-proline in the presence of ascorbate and β-aminopropionitrile, as previously described (Unemori et al, supra). For measurement of collagen deposition into the cell matrix, cell layers (per well) were isolated and hydrolyzed with 6 M hydrochloric acid for measurement of hydroxyproline content, as described previously (Samuel C S et al. (1996) Endocrinology 137:3884-3890; Gallop P M, Paz M A (1975) Physiol Rev 55:418487). […]
# MMP-2 = test: Gelatin zymography of conditioned media, MMP-2 expression; conditions: TGF-β 2 ng/ml alone, 72 h
# Experimental: The effects of rhRLX on MMP expression, were determined using gelatin zymography of conditioned media, performed as previously described (Talhouk R S et al. (1991) 112:439-449). Briefly, the neonatal cardiac cells (1×10^5/cm^2) were treated with either TGF-β (2 ng/ml) or Ang II (10^−7 M) in the absence or presence of rhRLX (100 ng/ml) for 72 h; the final 24 hours of treatment were under serum-free conditions. Equal aliquots of the collected media were then analyzed on zymogram gels consisting of 7.5% acrylamide and 1 mg/ml gelatin, and the gels were subsequently treated as previously detailed (Talhouk R S, supra).
# α-SMA = test: Fibroblast differentiation to myofibroblasts, Western blot of α-SMA; conditions: TGF-β 2 ng/ml or Ang II 10^−7 M alone, 72 h, ventricular fibroblasts
# Excerpt: In the normal heart, cardiac fibroblasts are relatively quiescent, but upon pathological stimuli to the heart they proliferate and differentiate into activated myofibroblasts. These myofibroblasts, the hallmarks of which are α-SMA expression and production of prodigious amounts of collagen, are important contributors to fibrosis and the pathology of the heart (Eghbali M (1998) Basic Res Cardiol 87(Suppl 2):183-189; Bouzegrhane F, Thibault G (2002) Cardiovasc Res 53:304-312). Ventricular fibroblast differentiation to myofibroblasts was analyzed by measuring α-SMA expression by ventricular fibroblasts. In all experiments, an equal amount of total protein (10 μg/sample) was analyzed. α-SMA was sized at 43 kDa under nonreducing conditions when detected with a monoclonal antibody. In some experiments, cells were either untreated or treated with TGF-β (2 ng/ml) alone or TGF-β (2 ng/ml) and rhRLX (100 ng/ml) for 72 hours. In other experiments, cells were either untreated or treated with Ang II (10^−7 M) alone or Ang II (10^−7 M) and rhRLX (100 ng/ml) for 72 hours.
# Fibroblast differentiation into myofibroblasts was determined by α-SMA expression. […] Cell layers were trypsinized, and the protein was extracted using Trizol reagent (according to the manufacturer's instructions; Life Technologies, Gaithersburg, Md.) and analyzed by the Bio-Rad dye-binding protein assay (Bio-Rad, Richmond, Calif.). […]
# [3] = test system: atrial and ventricular fibroblasts; test: Collagen deposition into the cell matrix (hydroxyproline content of cell layers); conditions: stimulus alone, 72 h
# Experimental: as §1
# Fibroblasts were also plated at 5/mm^2 and grown for 7 days in the absence or presence of rhRLX (100 ng/ml). […]
# Collagen content of cell layers from untreated fibroblasts and cells treated with rhRLX (100 ng/ml) alone, TGF-β (2 ng/ml) alone, or TGF-β (2 ng/ml) and rhRLX (100 ng/ml) was measured after 72 hours of culture. The collagen content of cell layers from untreated atrial fibroblasts and cells treated with Ang II (10^−7 M) alone or Ang II (10^−7 M) and rhRLX (100 ng/ml) was measured after 72 hours of culture. […]
Substance,increase in fibroblast proliferation ([1]; IGF-I 0.1 μg/ml),increase in fibroblast proliferation ([1]; IGF-I 0.5 μg/ml),increase in fibroblast proliferation ([1]; IGF-I 1.0 μg/ml),increase in secretion of interstitial (types I and III) collagen into the cultured media ([2]; 1 ng/ml alone),MMP-2 expression (MMP-2),increase in α-SMA expression (α-SMA),up-regulation of collagen deposition into the matrix of fibroblasts [3],increase in collagen secretion ([2]; Ang II 1×10^−7 M alone),increase in collagen secretion ([2]; Ang II 5×10^−7 M alone),increase in atrial and ventricular fibroblast proliferation ([1]; Ang II 10^−7 M) [%],increase in atrial and ventricular fibroblast proliferation ([1]; Ang II 10^−8 M)
IGF-I: growth factor that potently stimulates fibroblast proliferation,27-30%,36-40%,34-40%,–,–,–,–,–,–,–,–
TGF-β,–,–,–,85-95%,modest increase,85-95%,65-85%,–,–,–,–
"angiotensin II (DRVYIHPF; Angiotensin-2; UniProt P01019 25-32, looked up) [Ang II, angiotensin II, profibrotic stimulus obtained from Sigma-Aldrich]",–,–,–,–,–,25-35%,20-50%,50-60%,15-20%,6473,63-75%
